In the assay the target is T1, T1R2/T1R3 taste receptor (Homo sapiens, UniProt Q8TE23).
T1 sequence (Q8TE23 20-839): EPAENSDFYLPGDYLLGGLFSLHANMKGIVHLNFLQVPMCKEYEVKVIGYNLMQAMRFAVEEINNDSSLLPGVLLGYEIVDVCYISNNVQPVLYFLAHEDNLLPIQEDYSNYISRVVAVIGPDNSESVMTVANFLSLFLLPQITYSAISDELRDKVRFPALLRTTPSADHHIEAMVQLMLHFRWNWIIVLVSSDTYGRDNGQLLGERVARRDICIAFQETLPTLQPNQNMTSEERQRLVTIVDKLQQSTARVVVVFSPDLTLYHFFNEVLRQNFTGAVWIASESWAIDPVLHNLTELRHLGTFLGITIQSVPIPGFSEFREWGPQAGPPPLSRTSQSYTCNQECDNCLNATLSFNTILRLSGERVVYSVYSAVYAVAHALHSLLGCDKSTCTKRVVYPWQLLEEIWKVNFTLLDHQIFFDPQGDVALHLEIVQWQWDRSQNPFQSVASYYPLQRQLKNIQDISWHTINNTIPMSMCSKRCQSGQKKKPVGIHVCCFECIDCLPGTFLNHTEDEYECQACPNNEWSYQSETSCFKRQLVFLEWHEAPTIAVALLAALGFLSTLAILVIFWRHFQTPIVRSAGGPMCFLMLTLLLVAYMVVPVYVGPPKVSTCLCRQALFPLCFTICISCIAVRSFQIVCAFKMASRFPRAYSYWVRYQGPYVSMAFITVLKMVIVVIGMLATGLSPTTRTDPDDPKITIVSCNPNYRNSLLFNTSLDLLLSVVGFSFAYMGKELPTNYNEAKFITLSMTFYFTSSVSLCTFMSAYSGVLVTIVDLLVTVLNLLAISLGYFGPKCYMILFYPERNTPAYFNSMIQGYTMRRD
T1 sequence (Q7RTX0 21-852 partner): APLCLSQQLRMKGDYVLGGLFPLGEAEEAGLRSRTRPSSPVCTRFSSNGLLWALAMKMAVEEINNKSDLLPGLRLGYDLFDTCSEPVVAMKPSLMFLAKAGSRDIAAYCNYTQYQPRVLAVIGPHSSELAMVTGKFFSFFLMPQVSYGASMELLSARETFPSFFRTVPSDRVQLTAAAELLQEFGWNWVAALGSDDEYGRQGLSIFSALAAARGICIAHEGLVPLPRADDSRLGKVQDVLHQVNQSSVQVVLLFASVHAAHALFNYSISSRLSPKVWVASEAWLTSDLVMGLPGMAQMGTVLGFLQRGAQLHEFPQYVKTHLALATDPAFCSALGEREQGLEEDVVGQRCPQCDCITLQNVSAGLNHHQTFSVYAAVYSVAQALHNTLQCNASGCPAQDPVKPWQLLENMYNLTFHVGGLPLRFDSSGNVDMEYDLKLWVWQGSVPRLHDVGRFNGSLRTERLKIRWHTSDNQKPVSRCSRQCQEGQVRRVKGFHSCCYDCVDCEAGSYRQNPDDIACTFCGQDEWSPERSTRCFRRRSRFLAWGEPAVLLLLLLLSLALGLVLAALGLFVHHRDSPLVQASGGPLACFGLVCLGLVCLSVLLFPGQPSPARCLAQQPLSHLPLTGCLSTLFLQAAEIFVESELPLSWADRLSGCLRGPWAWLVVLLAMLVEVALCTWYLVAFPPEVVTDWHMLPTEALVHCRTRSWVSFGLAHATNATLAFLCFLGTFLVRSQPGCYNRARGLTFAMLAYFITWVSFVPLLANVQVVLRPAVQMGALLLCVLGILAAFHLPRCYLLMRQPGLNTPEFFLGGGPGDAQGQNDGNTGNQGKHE
The experiment in a line: Receptor-based assay: sweetener EC50 alone and with test compound (enhancement ratio). The class given is cell-based. The settings on record: for Sucralose Enhancement EC50 Ratio: sweetener sucralose; for Sucrose Enhancement EC50 Ratio: sweetener sucrose; for Fructose Enhancement EC50 Ratio: sweetener fructose. The procedure:
Potencies (EC50 values) for the sweeteners sucrose, sucralose, and fructose were measured against the T1R2/T1R3 taste receptor. EC50 was determined using the sweetener alone and in the presence of 3 μM, 10 μM, or 50 μM of test compound. EC50 ratios were calculated by the ratio of potency with and without the test compound. An “A” value indicates an enhancement ratio of greater than 20. A “B” value indicates an enhancement ratio from 10 to 20. A “C” value indicates an enhancement ratio greater than 1 and less than 10.

Regarding `NC1=NS(=O)(=O)Nc2cccc(OC[C@H]3CCCN(c4ccc(C(=O)NCCO)cn4)C3)c21` [Compound 503], the “Sucralose Enhancement EC50 Ratio” value (10 μM test compound) is given as “A (An “A” value indicates an enhancement ratio of greater than 20)”. Also, the “Sucrose Enhancement EC50 Ratio” value by setting is: (3 μM test compound) “C (A “C” value indicates an enhancement ratio greater than 1 and less than 10)”; (10 μM test compound) “C (A “C” value indicates an enhancement ratio greater than 1 and less than 10)”; (50 μM test compound) “C (A “C” value indicates an enhancement ratio greater than 1 and less than 10)”.
As for `CC(C)(COc1cccc2c1C(N)=NS(=O)(=O)N2)Nc1ccnc(-n2cccn2)n1` [Compound 202], the “Sucrose Enhancement EC50 Ratio” value (50 μM test compound) was “C (A “C” value indicates an enhancement ratio greater than 1 and less than 10)”.
Turning to `NC1=NS(=O)(=O)Nc2cccc(OC[C@H]3CCCN(c4ccc(C(=O)NC5CC5)cn4)C3)c21` [Compound 507], for the setting “50 μM test compound”, the “Fructose Enhancement EC50 Ratio” value is “C (A “C” value indicates an enhancement ratio greater than 1 and less than 10)”; the “Sucralose Enhancement EC50 Ratio” value is given as “A (An “A” value indicates an enhancement ratio of greater than 20)”; the “Sucrose Enhancement EC50 Ratio” value was “C (A “C” value indicates an enhancement ratio greater than 1 and less than 10)”. Moreover, where the note is “10 μM test compound”, the “Sucralose Enhancement EC50 Ratio” value is “A (An “A” value indicates an enhancement ratio of greater than 20)”; the “Sucrose Enhancement EC50 Ratio” value was “C (A “C” value indicates an enhancement ratio greater than 1 and less than 10)”. For the same molecule, under “3 μM test compound”, the “Sucrose Enhancement EC50 Ratio” value is “C (A “C” value indicates an enhancement ratio greater than 1 and less than 10)”.
In the case of `NC1=NS(=O)(=O)Nc2cccc(OC[C@H]3CCCN(c4cccc(C(=O)NC5CCCCC5)n4)C3)c21` [Compound 409], the “Sucralose Enhancement EC50 Ratio” value runs as follows: (10 μM test compound) “A (An “A” value indicates an enhancement ratio of greater than 20)”; (50 μM test compound) “A (An “A” value indicates an enhancement ratio of greater than 20)”. In addition, the “Sucrose Enhancement EC50 Ratio” value is, setting by setting: (3 μM test compound) “C (A “C” value indicates an enhancement ratio greater than 1 and less than 10)”; (10 μM test compound) “C (A “C” value indicates an enhancement ratio greater than 1 and less than 10)”; (50 μM test compound) “B (A “B” value indicates an enhancement ratio from 10 to 20)”.
For `CNC(=O)c1ccnc(N2CCC[C@H](COc3cccc4c3C(N)=NS(=O)(=O)N4)C2)c1` [Compound 600], the “Sucralose Enhancement EC50 Ratio” value by setting is: (10 μM test compound) “A (An “A” value indicates an enhancement ratio of greater than 20)”; (50 μM test compound) “A (An “A” value indicates an enhancement ratio of greater than 20)”. The “Sucrose Enhancement EC50 Ratio” value is “C (A “C” value indicates an enhancement ratio greater than 1 and less than 10)” (3 μM test compound); “B (A “B” value indicates an enhancement ratio from 10 to 20)” (50 μM test compound).
`CN(C)C(=O)c1cccc(N2CCC[C@H](COc3cccc4c3C(N)=NS(=O)(=O)N4)C2)n1` [Compound 410]: for the setting “50 μM test compound”, the “Fructose Enhancement EC50 Ratio” value was “C (A “C” value indicates an enhancement ratio greater than 1 and less than 10)”. Also, the “Sucralose Enhancement EC50 Ratio” value is, setting by setting: (10 μM test compound) “B (A “B” value indicates an enhancement ratio from 10 to 20)”; (50 μM test compound) “A (An “A” value indicates an enhancement ratio of greater than 20)”. The “Sucrose Enhancement EC50 Ratio” value (3 μM test compound) is “C (A “C” value indicates an enhancement ratio greater than 1 and less than 10)”; the “Sucrose Enhancement EC50 Ratio” value (10 μM test compound) is listed as “B (A “B” value indicates an enhancement ratio from 10 to 20)”; the “Sucrose Enhancement EC50 Ratio” value (50 μM test compound) is recorded as “B (A “B” value indicates an enhancement ratio from 10 to 20)”.
Take `CC(C)(COc1cccc2c1C(N)=NS(=O)(=O)N2)Nc1ccnc(N2CCOCC2)n1` [Compound 205]: where the note is “50 μM test compound”, the “Fructose Enhancement EC50 Ratio” value is “C (A “C” value indicates an enhancement ratio greater than 1 and less than 10)”; the “Sucralose Enhancement EC50 Ratio” value was “A (An “A” value indicates an enhancement ratio of greater than 20)”; the “Sucrose Enhancement EC50 Ratio” value was “C (A “C” value indicates an enhancement ratio greater than 1 and less than 10)”. Also, under “10 μM test compound”, the “Sucralose Enhancement EC50 Ratio” value is on record as “B (A “B” value indicates an enhancement ratio from 10 to 20)”; the “Sucrose Enhancement EC50 Ratio” value is “C (A “C” value indicates an enhancement ratio greater than 1 and less than 10)”. Besides, the “Sucrose Enhancement EC50 Ratio” value (3 μM test compound) was “C (A “C” value indicates an enhancement ratio greater than 1 and less than 10)”.
In the case of `CCN(CC)C(=O)c1ccc(N2CCC[C@H](COc3cccc4c3C(N)=NS(=O)(=O)N4)C2)nc1` [Compound 511], for the setting “50 μM test compound”, the “Fructose Enhancement EC50 Ratio” value is “C (A “C” value indicates an enhancement ratio greater than 1 and less than 10)”; the “Sucralose Enhancement EC50 Ratio” value is recorded as “A (An “A” value indicates an enhancement ratio of greater than 20)”; the “Sucrose Enhancement EC50 Ratio” value was “B (A “B” value indicates an enhancement ratio from 10 to 20)”. Besides, where the note is “10 μM test compound”, the “Sucralose Enhancement EC50 Ratio” value was “A (An “A” value indicates an enhancement ratio of greater than 20)”; the “Sucrose Enhancement EC50 Ratio” value is “C (A “C” value indicates an enhancement ratio greater than 1 and less than 10)”. Also, under “3 μM test compound”, the “Sucrose Enhancement EC50 Ratio” value is “C (A “C” value indicates an enhancement ratio greater than 1 and less than 10)”.
As to `NC1=NS(=O)(=O)Nc2cccc(OC[C@H]3CCCN(c4ccc(C(=O)O)cn4)C3)c21` [Compound 302], for the setting “10 μM test compound”, the “Fructose Enhancement EC50 Ratio” value was “C (A “C” value indicates an enhancement ratio greater than 1 and less than 10)”; the “Sucralose Enhancement EC50 Ratio” value is “A (An “A” value indicates an enhancement ratio of greater than 20)”; the “Sucrose Enhancement EC50 Ratio” value is “C (A “C” value indicates an enhancement ratio greater than 1 and less than 10)”. For the same molecule, where the note is “50 μM test compound”, the “Fructose Enhancement EC50 Ratio” value was “C (A “C” value indicates an enhancement ratio greater than 1 and less than 10)”; the “Sucralose Enhancement EC50 Ratio” value was “A (An “A” value indicates an enhancement ratio of greater than 20)”; the “Sucrose Enhancement EC50 Ratio” value is “C (A “C” value indicates an enhancement ratio greater than 1 and less than 10)”. For the same molecule, the “Sucrose Enhancement EC50 Ratio” value (3 μM test compound) is “C (A “C” value indicates an enhancement ratio greater than 1 and less than 10)”.
For `CC(C)(COc1cccc2c1C(N)=NS(=O)(=O)N2)Nc1ccnc(N2CCCC2)n1` [Compound 204], for the setting “50 μM test compound”, the “Fructose Enhancement EC50 Ratio” value was “C (A “C” value indicates an enhancement ratio greater than 1 and less than 10)”; the “Sucralose Enhancement EC50 Ratio” value was “A (An “A” value indicates an enhancement ratio of greater than 20)”; the “Sucrose Enhancement EC50 Ratio” value is “C (A “C” value indicates an enhancement ratio greater than 1 and less than 10)”. Also, for the setting “10 μM test compound”, the “Sucralose Enhancement EC50 Ratio” value is listed as “A (An “A” value indicates an enhancement ratio of greater than 20)”; the “Sucrose Enhancement EC50 Ratio” value is “C (A “C” value indicates an enhancement ratio greater than 1 and less than 10)”. Besides, the “Sucrose Enhancement EC50 Ratio” value (3 μM test compound) is “C (A “C” value indicates an enhancement ratio greater than 1 and less than 10)”.

Source of the values: patent US11945813B2, “5-substituted 4-amino-1H-benzo[c][1,2,6]thiadiazine 2,2-dioxides and formulations and uses thereof” (Firmenich Incorporated, priority 2018, dated 2024).
